Data published in US7462599B2, “Use of effectors of glutaminyl and glutamate cyclases” (Probiodrug AG, priority 2003, dated 2008).
Where “and” joins values, the source holds several entries; their conditions need not be identical. Equal values may be shown once. Entries after “also recorded” stand apart in the source; their conditions may differ. Bridge positions count the residues as written; N and C are the ends. Square brackets hold non-standard residues; d marks the D form. Ends that are not written are not given here. Peptide text beside a SMILES is read from it. β3hQ = NC(=O)CC[C@H](N)CC(=O)O

Key:
[1] = target: T1, QC (Homo sapiens, UniProt Q16769); assay: Continuous spectrophotometric assay of substrate conversion, human QC;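 on all read-outs here: initial rates read at 30 °C in a microplate reader, with activity quantified against an ammonia calibration curve under the same assay conditions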; type: biochemical; parameters: The cDNA of the mature QC starting with codon 38 was fused in frame with the plasmid encoded 6× histidine tag; 6x histidine tag; made in house; host or cells: Pichia pastoris X33 (pPICZαB); also E. coli M15 (pQE-31); settings: for Ki / Ki*: n.i. = no inhibition; for Ki*: for substrate inhibition
T1 sequence (Q16769 29-361): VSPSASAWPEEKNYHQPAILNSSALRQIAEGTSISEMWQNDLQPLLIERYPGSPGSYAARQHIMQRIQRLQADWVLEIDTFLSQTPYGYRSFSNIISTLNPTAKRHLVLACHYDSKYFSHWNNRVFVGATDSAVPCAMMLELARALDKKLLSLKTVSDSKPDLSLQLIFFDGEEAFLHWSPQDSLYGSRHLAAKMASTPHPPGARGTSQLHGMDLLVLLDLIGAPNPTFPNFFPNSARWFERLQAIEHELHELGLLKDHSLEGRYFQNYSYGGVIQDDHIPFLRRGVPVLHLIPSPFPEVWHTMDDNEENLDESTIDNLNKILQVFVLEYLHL
Method: The initial velocities were evaluated and the enzymatic activity was determined from a standard curve of ammonia under assay conditions. All samples were measured at 30° C., using either the [sequence]luor Plus or the Sunrise (both from TECAN) reader for microplates. Kinetic data was evaluated using GraFit software.

[2] = target: T1, QC; assay: MALDI-TOF qualitative substrate conversion, human QC; type: biochemical; parameters: The cDNA of the mature QC starting with codon 38 was fused in frame with the plasmid encoded 6× histidine tag; 6x histidine tag; made in house; host or cells: Pichia pastoris X33 (pPICZαB); also E. coli M15 (pQE-31)
Method: Matrix-assisted laser desorption/ionization mass spectrometry was carried out using the Hewlett-Packard G2025 LD-TOF System with a linear time of flight analyzer. […] Samples (5 μl) were mixed with equal volumes of the matrix solution. For matrix solution we used DHAP/DAHC, prepared by solving 30 mg 2′,6′-dihydroxyacetophenone (Aldrich) and 44 mg diammonium hydrogen citrate (Fluka) in 1 ml acetonitrile/0.1% TFA in water (1/1, v/v). A small volume (≈1 μl) of the matrix-analyte-mixture was transferred to a probe tip and immediately evaporated in a vacuum chamber (Hewlett-Packard G2024A sample prep accessory) to ensure rapid and homogeneous sample crystallization.
In order to further investigate the specificity and selectivity of the QCs, peptides were synthesized comprising either a modified N-terminal glutaminyl residue or a modified amino acid in the second position. […] Due to the cyclization of the glutaminyl residue or its analog, respectively, a mass difference of the substrate and the product of catalysis is detected. In cases of ammonia liberation of one mole per mole of substrate, the conversion was also analyzed quantitatively using the spectrophotometric assay.

[3] = target: T1, QC; assay: Fluorometric QC assay with pyroglutamyl aminopeptidase as auxiliary enzyme, human QC; type: biochemical; parameters: The cDNA of the mature QC starting with codon 38 was fused in frame with the plasmid encoded 6× histidine tag; 6x histidine tag; made in house; host or cells: Pichia pastoris X33 (pPICZαB); also E. coli M15 (pQE-31); settings: for inhibition of human QC by the peptide: H-Gln-AMC as substrate; for conversion by human QC: analyzed fluorometrically
Source text: Excitation/emission wavelengths were 320/410 nm.
H-Glu(OMe)-βNA and H-Glu-βNA.

[4] = target: T1, QC; assay: Discontinuous method for QC kinetic parameters; type: biochemical
[5] = target: T1, QC; assay: Enzyme inactivation/reactivation of human QC; type: biochemical; parameters: The cDNA of the mature QC starting with codon 38 was fused in frame with the plasmid encoded 6× histidine tag; 6x histidine tag; made in house; host or cells: Pichia pastoris X33 (pPICZαB); also E. coli M15 (pQE-31)
[6] = Method: H-Glu(OMe)-βNA and H-Glu-βNA. […] These fluorogenic substrates were analyzed fluorometrically, utilizing pyroglutamyl aminopeptidase as auxiliary enzyme.
[7] = target: T1, QC; assay: Inhibitor assay, human QC catalyzed reaction (Ki determination); type: biochemical; parameters: The cDNA of the mature QC starting with codon 38 was fused in frame with the plasmid encoded 6× histidine tag; 6x histidine tag; made in house; host or cells: Pichia pastoris X33 (pPICZαB); also E. coli M15 (pQE-31)
[8] = tested on: mammalian QC; settings: Busby et al. 1987; cited from earlier work
[9] = 0.05 M Tris-HCl, pH 8.0, 0.5 M KCl
[10] = recombinant human QC, buffer containing 1% DMSO

Compound: NC(=O)CC[C@H](N)C(=O)O [H-Gln-OH]
- KM ([1]; Table 6, n.r. = not reactive): n.r.
- kcat ([1]; Table 6, n.r. = not reactive): n.r.

Compound: H-Gln(NMe)-Phe-Lys-Ala-Glu-NH2 (H-QFKAE-NH2; not fully specified (residue 1); printed as H-Gln(NMe)-Phe-Lys-Ala-Glu-NH2)
- conversion by human QC [2]: not recognized by human QC; also recorded: No substrate conversion was observed
- inhibition of human QC by the peptide [3]: not detected

Compound: NC(=O)CC[C@H](N)C(=O)N[C@@H](CCC(=O)O)C(=O)O [H-Gln-Glu-OH] (H-Gln-Glu-OH)
- kcat ([1]; 0.05 M Tris-HCl, pH 8.0): 21.4 ± 0.3 s⁻¹
- kcat [1, 9]: 18.9 ± 0.5 s⁻¹
- Ki [1, 9]: n.i.
- Ki ([1]; 0.05 M Tris-HCl, pH 8.0): n.i.
- Ki* ([1]; Table 6): n.i.
- kcat ([1]; Table 6, n.r. = not reactive): 24.7 ± 0.2 s⁻¹
- Km ([1]; pH 8): 373 µM and 607 µM

Compound: NC(=O)CC[C@H](NC(=O)[C@@H](N)CCC(N)=O)C(=O)O [H-Gln-Gln-OH] (H-Gln-Gln-OH)
- Km [4]: 175 ± 18 µM
- kcat ([4]; discontinuous method): 21.3 ± 0.6 s⁻¹
- Km [1]: 148 ± 5 µM
- Ki* ([1]; Table 6): n.i.
- kcat ([1]; Table 6, n.r. = not reactive): 20.7 ± 0.2 s⁻¹

Compound: CC(C)(C)OC(=O)C(N)CCC(N)=O (stereo not drawn) [H-Gln-OtBu]
- Ki* ([1]; Table 6): n.i.
- Km ([1]; Table 6, n.r. = not reactive): 1240 ± 74 µM
- kcat ([1]; Table 6, n.r. = not reactive): 6.7 ± 0.2 s⁻¹

Compound: Oc1cccc2cccnc12 [8-hydroxyquinoline]
- inhibition of human QC catalyzed substrate cyclization by chelators [5]: abolished

Compound: N[C@@H](CCC(=O)O)C(=O)Nc1ccc2ccccc2c1 [Glu-βNA, H-Glu-βNA]
- limiting rate constant for nonenzymatic turnover (estimate, no product formed) ([6]; pH 6.0, 4 weeks): ≤ 1e-09 s⁻¹
- conversion by human QC [3]: Neither of these compounds were converted

Compound: [Gln^1]-GnRH: GnRH with N-terminal glutamine: QHWSYGL RP(G) amide
- Km ([1]; Table 1): 53 ± 3 µM
- kcat ([1]; Table 1): 69.2 ± 1.1 s⁻¹

Compound: Cc1cc(=O)oc2cc(NC(=O)[C@@H](N)CCC(N)=O)ccc12 [H-Gln-AMC]
- Km ([1]; Table 6, n.r. = not reactive): 54 ± 2 µM
- kcat ([1]; Table 6, n.r. = not reactive): 5.3 ± 0.1 s⁻¹

Compound: C[C@H](NC(=O)[C@H](C)NC(=O)[C@@H](N)CCC(N)=O)C(N)=O [H-Gln-Ala-Ala-NH2] (H-Gln-Ala-Ala-NH2)
- kcat ([1]; Table 7, substrate length): 76.3 ± 0.7 s⁻¹

Compound: QFRHDSGYEVHHQKLVFFA-NH2 [[Gln^3]Aβ3-21a]
- Km [1, 10]: 162 ± 12 µM
- kcat [1, 10]: 62 ± 3 s⁻¹

Compound: O=S(=O)([O-])[O-].[Zn+2] [ZnSO4]
- restoration of QC activity after inactivation ([5]; metal ion incubation in presence of 0.5 mM EDTA): Near-total restoration

Compound: O=C(O)c1cccc(C(=O)O)n1 [dipicolinic acid]
- inactivation of human QC after extensive dialysis [5]: almost completely inactivated
- inhibition of human QC catalyzed substrate cyclization by chelators [5]: abolished

Compound: COC(=O)CC[C@H](N)C(=O)Nc1ccc2ccccc2c1 [H-Glu(OMe)-βNA, H-Glu(OMe)-β-naphthylamide]
- stability in Tris and Tricine buffers (non-enzymatically catalyzed cyclization) [6]: remarkable instability
- conversion by human QC [3]: Neither of these compounds were converted

Compound: CC(C)[C@H](NC(=O)[C@@H](N)CCC(N)=O)C(=O)O [H-Gln-Val-OH] (H-Gln-Val-OH)
- Km [1]: 196 ± 5 µM
- Ki* ([1]; Table 6): n.i.
- kcat ([1]; Table 6, n.r. = not reactive): 17.2 ± 0.1 s⁻¹

Compound: NC(=O)CC[C@H](N)C(=O)Nc1ccc2ccccc2c1 [H-Gln-βNA]
- kcat [1]: 20.6 ± 0.5 s⁻¹
- kcat ([1]; pH 8): 21.7 ± 0.5 s⁻¹ and 20.0 ± 0.4 s⁻¹
- first-order rate constant of nonenzymatic pGlu-formation ([6]; pH 6.0, followed for 4 weeks): 1.2*10^−7 s^−1

Compound: C[C@H](NC(=O)[C@@H](N)CCC(N)=O)C(N)=O [H-Gln-Ala-NH2] (H-Gln-Ala-NH2)
- kcat ([1]; Table 7, substrate length): 40.1 ± 0.9 s⁻¹

Compound: COC(=O)CC[C@H](N)C(=O)N[C@@H](Cc1ccccc1)C(=O)N[C@@H](CCCCN)C(=O)N[C@@H](CCCNC(=N)N)C(=O)N[C@@H](CC(C)C)C(=O)N[C@@H](C)C(N)=O [H-Glu(OMe)-Phe-Lys-Arg-Leu-Ala-NH2] (H-E(OMe)FKRLA-NH2)
- inhibition of human QC by the peptide [3]: not inhibited

Compound: O=C1CNC(=S)N1CCCn1ccnc1 [3-[3-(1H-imidazol-1-yl)propyl]-2-thioxoimidazolidin-4-one]
- Ki ([7]; 30° C., 0.05 M Tris-HCl pH 8.0, 5 mM EDTA): 810 ± 10 nM

Compound: H-βhomoGln-Phe-Lys-Arg-Leu-Ala-NH2 (H-[β3hQ]FKRLA-NH2; SMILES CC(C)C[C@H](NC(=O)[C@H](CCCNC(=N)N)NC(=O)[C@H](CCCCN)NC(=O)[C@H](Cc1ccccc1)NC(=O)C[C@@H](N)CCC(N)=O)C(=O)N[C@@H](C)C(N)=O)
- Km [1]: 2500 ± 200 µM
- fold reduced efficiency of cyclization compared to peptides of similar size with N-terminal glutaminyl residue [1]: approximately 1000 fold
- kcat (turnover number) [1]: 3.5 ± 0.1 s⁻¹

Compound: c1ccc(-n2ccnc2)cc1 [1-phenylimidazole]
- inhibition of human QC [7]: inactive under the experimental conditions

Compound: reduced 6-methylpterin
- inhibition of mammalian QC [8]: Inhibition of a mammalian QC was only detected

Compound: O=C(O)CN(CCN(CC(=O)O)CC(=O)O)CC(=O)O [EDTA]
- inhibition of mammalian QC [8]: did not inhibit
- inhibition of human QC catalyzed substrate cyclization by chelators [5]: did not show remarkable inhibition

Compound: C[C@H](NC(=O)[C@@H](N)CCC(N)=O)C(=O)O [H-Gln-Ala-OH] (H-Gln-Ala-OH)
- Km [1]: 232 ± 5 µM
- kcat ([1]; 0.05 M Tris-HCl, pH 8.0): 54.4 ± 0.5 s⁻¹
- kcat [1, 9]: 47.6 ± 0.6 s⁻¹
- Ki [1, 9]: n.i.
- Ki ([1]; 0.05 M Tris-HCl, pH 8.0): n.i.
- Ki* ([1]; Table 6): n.i.
- kcat ([1]; Table 6, n.r. = not reactive): 57.2 ± 0.4 s⁻¹
- Km ([1]; pH 8): 269 µM and 357 µM

Compound: H-EFKRLA-NH2 [H-Glu-Phe-Lys-Arg-Leu-Ala-NH2]
- inhibition of human QC by the peptide [3]: not inhibited

Compound: H-Gln-cyclo(Nε-Lys-Arg-Pro-Ala-Gly-Phe) (H-QKRPAGF; lactam 2-C; SMILES C[C@@H]1NC(=O)[C@@H]2CCCN2C(=O)[C@H](CCCNC(=N)N)NC(=O)[C@@H](NC(=O)[C@@H](N)CCC(N)=O)CCCCNC(=O)[C@H](Cc2ccccc2)NC(=O)CNC1=O)
- Km [1]: 240 ± 14 µM
- kcat (turnover number) [1]: 22.8 ± 0.6 s⁻¹

Compound: Cn1cnc(CCN)c1 [1-methyl-4-(β-aminoethyl)-imidazole]
- inhibition of human QC [7]: complete loss of inhibitory activity
- Ki value ([7]; Table 4, n.i. = no inhibition): n.i.

Compound: H-QAASAA-NH2 [H-Gln-Ala-Ala-Ser-Ala-Ala-NH2]
- Km ([1]; Table 7, substrate length): 79 ± 6 µM
- kcat ([1]; Table 7, substrate length): 55.3 ± 1.6 s⁻¹

Compound: NC(=O)CC[C@H](N)C(=O)N[C@@H](Cc1ccc(O)cc1)C(=O)O [H-Gln-Tyr-OH] (H-Gln-Tyr-OH)
- Km [1]: 211 ± 5 µM
- Ki* ([1]; Table 6): n.i.
- kcat ([1]; Table 6, n.r. = not reactive): 94 ± 1 s⁻¹

Compound: H-Gln-Lys(Gln)-Arg-Leu-Ala-NH2 (H-QK(Gln)RLA-NH2; SMILES CC(C)C[C@H](NC(=O)[C@H](CCCNC(=N)N)NC(=O)[C@H](CCCCNC(=O)[C@@H](N)CCC(N)=O)NC(=O)[C@@H](N)CCC(N)=O)C(=O)N[C@@H](C)C(N)=O) [H-Gin-Lys(Gln)-Arg-Leu-Ala-NH2]
- conversion by human QC [2]: converted

Compound: NC(=O)CC[C@H](N)C(N)=O [H-Gln-NH2]
- Km ([1]; 0.05 M Tris-HCl, pH 8.0): 442 ± 30 µM
- kcat ([1]; 0.05 M Tris-HCl, pH 8.0): 12.8 ± 0.3 s⁻¹
- kcat [1, 9]: 12.2 ± 0.1 s⁻¹
- Ki [1, 9]: n.i.
- Ki ([1]; 0.05 M Tris-HCl, pH 8.0): n.i.
- Ki* ([1]; Table 6): n.i.
- kcat ([1]; Table 6, n.r. = not reactive): 12.8 ± 0.5 s⁻¹

Compound: H-QAAAA-NH2 [H-Gln-Ala-Ala-Ala-Ala-NH2]
- Km ([1]; Table 7, substrate length): 65 ± 3 µM
- kcat ([1]; Table 7, substrate length): 60.5 ± 0.7 s⁻¹
